Target: T1, hSK3 channels (Homo sapiens, UniProt Q9UGI6)
T1 construct: expressed in transfected cells; host or cells: HEK293
Test: whole-cell patch-clamp of SK3 current in HEK293 cells expressing hSK3 channels
Assay type: cell-based
Details: SK3 activation
Experimental: The ionic current through small-conductance Ca^2+-activated K^+ channels (SK channels, subtype 3) is recorded using the whole-cell configuration of the patch-clamp technique in a classic patch-clamp set-up using HEK293 tissue culture cells expressing hSK3 channels as described in e.g. WO 2006/100212.
The SC100 value determined is defined as the Stimulating Concentration required for increasing the baseline current by 100%. The below SC100 values are an indication of the SK3 activating properties of the compounds of the invention.

| SC100 (Stimulating Concentration required for increasing the baseline current by 100%) | SMILES |
| --- | --- |
| 0.04 µM | CCn1cnc2c(Nc3ccc(Cl)c(Cl)c3)nc(-n3nc(C)cc3C)nc21 [Compound 4.1, (3,4-Dichloro-phenyl)-[2-(3,5-dimethyl-pyrazol-1-yl)-9-ethyl-9H-purin-6-yl]-amine] |
| 0.02 µM | Cc1cc(C)n(-c2nc(Nc3ccc(F)c(F)c3)c3ncn(C)c3n2)n1 [Compound 6.1, (3,4-Difluoro-phenyl)-(2-(3,5-dimethyl-pyrazol-1-yl)-9-methyl-9H-purin-6-yl)-amine] |

Reference: US20120004246A1, “PURINYL DERIVATIVES AND THEIR USE AS POTASSIUM CHANNEL MODULATORS” (NeuroSearch A/S, priority 2007, published 2012)
